# Data taken from patent US20080299098A1, “Broad-Spectrum Antibacterial and Antifungal Activity of Lactobacillus Johnsonii D115” (priority 2007, published 2008).
# Where two headings read alike, the source gives them in different places.
# Assays:
# [1] = test system: Brachyspira hyodysenteriae; conditions: for Plate count: hydrogen peroxide 3100 μM
# Brachyspira pilosicoli = conditions: for Plate count: hydrogen peroxide 3300 μM
# [2] = hydrogen peroxide at approximately 3,000 μM, 2 h
smiles,measurement,setting,value
OO [hydrogen peroxide],Plate count,[1]; 0 hr,5.0 × 10^5 CFU per ml
same,Plate count,[1]; 2 hr,9 CFU per ml
same,reduction of count,[1]; [2],4 logs
same,Plate count,Brachyspira pilosicoli; 0 hr,6.00 × 10^6 CFU per ml
same,Plate count,Brachyspira pilosicoli; 2 hr,3.00 × 10^1 CFU per ml
same,reduction of count,Brachyspira pilosicoli; [2],5 logs
